Assay results as given in ChEMBL document CHEMBL1138672, “Dopamine/serotonin receptor ligands. 9. Oxygen-containing midsized heterocyclic ring systems and nonrigidized analogues. A step toward dopamine D5 receptor selectivity” (J Med Chem, 2004).

Key:
D(1A) dopamine receptor = D(1A) dopamine receptor (Homo sapiens, UniProt P21728)
Description: Binding affinity for human recombinant dopamine receptor D1

D(2) dopamine receptor = D(2) dopamine receptor (Homo sapiens, UniProt P14416); assay: Binding affinity for human recombinant dopamine receptor D2L
D(3) dopamine receptor = D(3) dopamine receptor (Homo sapiens, UniProt P35462)
Description: Binding affinity for human recombinant dopamine receptor D3

D(4) dopamine receptor = target: T1, D(4) dopamine receptor (Homo sapiens, UniProt P21917); assay: Binding affinity for human recombinant dopamine receptor D4.4
T1 sequence (P21917 whole entry): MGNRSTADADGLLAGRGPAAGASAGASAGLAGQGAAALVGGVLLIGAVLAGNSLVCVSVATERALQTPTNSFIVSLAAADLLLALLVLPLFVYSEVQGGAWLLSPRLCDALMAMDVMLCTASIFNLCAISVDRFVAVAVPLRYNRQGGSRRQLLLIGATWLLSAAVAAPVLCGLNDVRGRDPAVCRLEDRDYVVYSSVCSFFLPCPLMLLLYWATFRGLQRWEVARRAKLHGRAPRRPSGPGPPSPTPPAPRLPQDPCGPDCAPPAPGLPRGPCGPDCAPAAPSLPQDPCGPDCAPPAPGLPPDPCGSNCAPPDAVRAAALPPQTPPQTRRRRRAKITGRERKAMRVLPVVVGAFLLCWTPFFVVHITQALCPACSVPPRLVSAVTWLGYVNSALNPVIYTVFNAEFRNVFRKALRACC

D(1B) dopamine receptor = D(1B) dopamine receptor (Homo sapiens, UniProt P21918); assay: Binding affinity for human recombinant dopamine receptor D5
Chain of D(1B) dopamine receptor (P21918 whole entry): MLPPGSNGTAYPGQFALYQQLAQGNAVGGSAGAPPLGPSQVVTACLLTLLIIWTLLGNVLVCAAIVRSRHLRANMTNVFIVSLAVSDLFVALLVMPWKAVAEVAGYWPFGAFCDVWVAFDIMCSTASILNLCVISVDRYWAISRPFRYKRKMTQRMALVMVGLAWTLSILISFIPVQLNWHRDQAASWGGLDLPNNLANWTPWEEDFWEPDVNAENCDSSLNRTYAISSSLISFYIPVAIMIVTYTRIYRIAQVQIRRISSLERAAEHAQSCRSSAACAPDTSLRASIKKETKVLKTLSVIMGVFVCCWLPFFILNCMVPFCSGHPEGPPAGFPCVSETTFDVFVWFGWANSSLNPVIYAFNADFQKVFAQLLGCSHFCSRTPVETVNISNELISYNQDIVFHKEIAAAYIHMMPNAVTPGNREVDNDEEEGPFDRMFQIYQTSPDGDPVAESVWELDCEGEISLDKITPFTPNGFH

Chain of D(3) dopamine receptor (P35462 whole entry): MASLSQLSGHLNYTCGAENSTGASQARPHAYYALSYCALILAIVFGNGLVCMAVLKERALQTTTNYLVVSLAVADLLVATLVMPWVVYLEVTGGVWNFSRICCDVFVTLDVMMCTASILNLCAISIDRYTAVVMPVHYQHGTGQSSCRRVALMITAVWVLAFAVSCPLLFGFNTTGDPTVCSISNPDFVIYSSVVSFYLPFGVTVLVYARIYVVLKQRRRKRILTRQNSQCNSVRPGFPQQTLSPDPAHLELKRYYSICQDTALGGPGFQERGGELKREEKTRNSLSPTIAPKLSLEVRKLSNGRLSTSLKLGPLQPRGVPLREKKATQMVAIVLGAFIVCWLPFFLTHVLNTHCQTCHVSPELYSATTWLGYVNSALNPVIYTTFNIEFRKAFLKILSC
Chain of D(1A) dopamine receptor (P21728 whole entry): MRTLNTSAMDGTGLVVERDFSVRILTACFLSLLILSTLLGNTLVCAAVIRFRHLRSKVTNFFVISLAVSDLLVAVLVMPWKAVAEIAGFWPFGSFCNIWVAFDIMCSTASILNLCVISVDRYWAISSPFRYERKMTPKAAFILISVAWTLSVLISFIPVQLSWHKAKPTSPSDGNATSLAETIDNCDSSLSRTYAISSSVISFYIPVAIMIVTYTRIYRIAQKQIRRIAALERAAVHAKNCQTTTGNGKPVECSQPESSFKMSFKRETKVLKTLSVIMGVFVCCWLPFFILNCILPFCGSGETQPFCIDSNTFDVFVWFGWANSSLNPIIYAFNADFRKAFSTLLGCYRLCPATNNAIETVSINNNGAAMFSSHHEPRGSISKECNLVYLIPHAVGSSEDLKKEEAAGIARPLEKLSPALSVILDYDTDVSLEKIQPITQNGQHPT
Chain of D(2) dopamine receptor (P14416 whole entry): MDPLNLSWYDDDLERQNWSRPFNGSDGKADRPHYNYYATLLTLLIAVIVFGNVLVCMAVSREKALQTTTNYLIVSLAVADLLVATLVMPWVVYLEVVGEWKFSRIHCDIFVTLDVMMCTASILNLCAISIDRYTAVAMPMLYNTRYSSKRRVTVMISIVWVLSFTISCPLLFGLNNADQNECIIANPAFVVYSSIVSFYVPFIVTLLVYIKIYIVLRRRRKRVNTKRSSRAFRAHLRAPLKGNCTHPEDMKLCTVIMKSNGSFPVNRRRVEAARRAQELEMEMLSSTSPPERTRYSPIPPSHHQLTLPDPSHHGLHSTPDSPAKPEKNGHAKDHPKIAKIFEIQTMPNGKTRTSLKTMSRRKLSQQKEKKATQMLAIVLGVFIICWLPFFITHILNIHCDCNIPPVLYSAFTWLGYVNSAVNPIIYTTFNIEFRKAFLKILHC

| SMILES | Ki (D(1A) dopamine receptor) [µM] | Ki (D(2) dopamine receptor) [µM] | Ki (D(3) dopamine receptor) [µM] | Ki (D(4) dopamine receptor) [µM] | Ki (D(1B) dopamine receptor) [µM] |
| --- | --- | --- | --- | --- | --- |
| COc1ccc2c(c1)OCCN(C)CCc1ccccc1C2 | 0.0355 | 0.158 | 1.6 | 0.546 | 0.0018 |
| CN1CCOc2cc(O)ccc2Cc2ccccc2CC1 | 0.0032 | 0.274 | 1.38 | 0.375 | 0.00057 |
| c1ccc(Cc2ccccc2OCCN2CCN(c3ccccc3)CC2)cc1 | 1.48 | 4.19 | 2.86 | > 10 | 0.62 |
| CC1CN(CCOc2ccccc2Cc2ccccc2)CCO1 (stereo not given) | 1.68 | > 10 | > 10 | > 10 |  |
| OC(c1ccccc1)c1ccccc1OCCN1CCCC1 (stereo not given) | 2.62 | 6.28 | > 10 | > 10 |  |
| c1ccc(Cc2ccccc2OCCCN2CCCC2)cc1 | 0.113 | 1.01 | 2.92 | 1.26 | 0.113 |
| c1ccc(Cc2ccccc2NCCN2CCCC2)cc1 | > 10 | > 10 | 4.65 | > 10 |  |
| c1ccc(Cc2ccccc2OCCN2CCCCC2)cc1 | 0.0337 | 1.02 | 7.8 | 4.48 | 0.043 |
| O=C(c1ccccc1)c1ccccc1OCCN1CCCC1 | 1.65 | 5.32 | 2.41 | > 10 |  |
| c1ccc(Cc2ccccc2OCCN2CCOCC2)cc1 | 0.201 | > 10 | > 10 | 6.48 | 0.366 |
| c1ccc(Cc2ccccc2OCCN2CCCC2)cc1 | 0.379 | > 10 | 1.82 | 1.43 | 0.951 |
| CCN(CC)CCOc1ccccc1Cc1ccccc1 [ETOLOXAMINE] | 1.96 | 2.02 | 4.67 | > 10 |  |
| CN(C)CCOc1ccccc1Cc1ccccc1 [PHENYLTOLOXAMINE] | 0.343 | 2.74 | > 10 | 2.77 | 0.414 |
